According to patent US20230085307A1, “PYRIDAZINONE COMPOUND AND HERBICIDE” (NISSAN CHEMICAL CORPORATION, priority 2019, published 2023):

Tests used:
lambsquarters [1] = assay: Test Example 5: herbicidal effect by foliage application, plastic box (Table 20, symbol O); assay type: in vivo, lambsquarters (Chenopodium album); details: foliage application, evaluated three weeks after application
Method in brief: (§1)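 Post-emergence foliar test in sterilized diluvial soil. Compound applied as water-diluted emulsion at a predetermined rate to 14-day-old plants; evaluation at three weeks.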

Italian ryegrass [2] = assay: Test Example 4: herbicidal effect by soil treatment (Table 19, symbol K); assay type: in vivo, Italian ryegrass (Lolium multiflorum); details: amount of applied herbicide 320 g/ha
Method in brief: (§2)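 Emulsion of test compound, water-diluted to predetermined amount, sprayed on soil after sowing (seed depth ~1.5 cm, sterilized diluvial soil). Greenhouse, 25–30° C. Effect graded at three weeks post-spray.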

green foxtail [3] = assay: Test Example 4: herbicidal effect by soil treatment (Table 19, symbol G); assay type: in vivo, green foxtail (Setaria viridis); details: amount of applied herbicide 320 g/ha
Method in brief: as §2

southern crabgrass [4] = assay: Test Example 5: herbicidal effect by foliage application, plastic box (Table 20, symbol F); assay type: in vivo, southern crabgrass (Digitaria ciliaris); details: foliage application, evaluated three weeks after application
Method in brief: as §1

barnyard grass [5] = assay: Test Example 3: herbicidal effect by foliage application, Wagner pot (Table 18, symbol H); assay type: in vivo, barnyard grass (Echinochloa crus-galli); details: amount of applied herbicide 320 g/ha
Method in brief: (§3)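 Plants were sown in alluvial soil held under 0.1–0.5 cm standing water and grown 14 days in a greenhouse at 25–30 °C. An emulsifiable formulation, water-diluted to the set dose, was then sprayed onto the foliage, and effects were scored three weeks later using previously defined criteria.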

green foxtail [6] = assay: Test Example 5: herbicidal effect by foliage application, plastic box (Table 20, symbol G); assay type: in vivo, green foxtail (Setaria viridis); details: foliage application, evaluated three weeks after application
Method in brief: as §1

windgrass [7] = assay: Test Example 4: herbicidal effect by soil treatment (Table 19, symbol L); assay type: in vivo, windgrass (Apera spica-venti); details: amount of applied herbicide 320 g/ha
Method in brief: as §2

persian speedwell [8] = assay: Test Example 4: herbicidal effect by soil treatment (Table 19, symbol R); assay type: in vivo, Persian speedwell (Veronica persica); details: amount of applied herbicide 320 g/ha
Method in brief: as §2

persian speedwell [9] = assay: Test Example 5: herbicidal effect by foliage application, plastic box (Table 20, symbol R); assay type: in vivo, Persian speedwell (Veronica persica); details: foliage application, evaluated three weeks after application
Method in brief: as §1

oval-leafed pondweed = assay: Test Example 1: herbicidal activity, application before weed generation under submerged conditions (Table 16, symbol C); assay type: in vivo, oval-leafed pondweed (Monochoria vaginalis); details: 320 g/ha applied herbicide
Method in brief: (§4)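 Submerged Wagner pots (alluvial soil, 4 cm water) sown with weed seeds and planted with 2.5-leaf rice seedlings; emulsifiable concentrate diluted in water applied to water surface on sowing day. Held in greenhouse at 25-30 °C; injury scored 0-5 by herbicidal rate after three weeks.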

southern crabgrass [10] = assay: Test Example 4: herbicidal effect by soil treatment (Table 19, symbol F); assay type: in vivo, southern crabgrass (Digitaria ciliaris); details: amount of applied herbicide 320 g/ha
Method in brief: as §2

Chinese sprangletop = assay: Test Example 3: herbicidal effect by foliage application, Wagner pot (Table 18, symbol D); assay type: in vivo, chinese sprangletop (Leptochloa chinensis); details: amount of applied herbicide 320 g/ha
Method in brief: as §3

velvetleaf [11] = assay: Test Example 4: herbicidal effect by soil treatment (Table 19, symbol M); assay type: in vivo, velvetleaf (Abutilon theophrasti); details: amount of applied herbicide 320 g/ha
Method in brief: as §2

barnyard grass [12] = assay: Test Example 4: herbicidal effect by soil treatment (Table 19, symbol H); assay type: in vivo, barnyard grass (Echinochloa crus-galli); details: amount of applied herbicide 320 g/ha
Method in brief: as §2

chickweed [13] = assay: Test Example 4: herbicidal effect by soil treatment (Table 19, symbol P); assay type: in vivo, common chickweed (Stellaria media); details: amount of applied herbicide 320 g/ha
Method in brief: as §2

windgrass [14] = assay: Test Example 5: herbicidal effect by foliage application, plastic box (Table 20, symbol L); assay type: in vivo, windgrass (Apera spica-venti); details: foliage application, evaluated three weeks after application
Method in brief: as §1

velvetleaf [15] = assay: Test Example 5: herbicidal effect by foliage application, plastic box (Table 20, symbol M); assay type: in vivo, velvetleaf (Abutilon theophrasti); details: foliage application, evaluated three weeks after application
Method in brief: as §1

redroot pigweed [16] = assay: Test Example 5: herbicidal effect by foliage application, plastic box (Table 20, symbol N); assay type: in vivo, redroot pigweed (Amaranthus retroflexus); details: foliage application, evaluated three weeks after application
Method in brief: as §1

lambsquarters [17] = assay: Test Example 4: herbicidal effect by soil treatment (Table 19, symbol O); assay type: in vivo, lambsquarters (Chenopodium album); details: amount of applied herbicide 320 g/ha
Method in brief: as §2

redroot pigweed [18] = assay: Test Example 4: herbicidal effect by soil treatment (Table 19, symbol N); assay type: in vivo, redroot pigweed (Amaranthus retroflexus); details: amount of applied herbicide 320 g/ha
Method in brief: as §2

rice flat sedge = assay: Test Example 3: herbicidal effect by foliage application, Wagner pot (Table 18, symbol E); assay type: in vivo, rice flat sedge (Cyperus iria); details: amount of applied herbicide 320 g/ha
Method in brief: as §3

late watergrass = assay: Test Example 1: herbicidal activity, application before weed generation under submerged conditions (Table 16, symbol A); assay type: in vivo, late watergrass (Echinochloa oryzicola); details: 320 g/ha applied herbicide
Method in brief: as §4

wild oat [19] = assay: Test Example 4: herbicidal effect by soil treatment (Table 19, symbol I); assay type: in vivo, wild oat (Avena fatua); details: amount of applied herbicide 320 g/ha
Method in brief: as §2

Italian ryegrass [20] = assay: Test Example 5: herbicidal effect by foliage application, plastic box (Table 20, symbol K); assay type: in vivo, Italian ryegrass (Lolium multiflorum); details: foliage application, evaluated three weeks after application
Method in brief: as §1

blackgrass [21] = assay: Test Example 4: herbicidal effect by soil treatment (Table 19, symbol J); assay type: in vivo, blackgrass (Alopecurus myosuroides); details: amount of applied herbicide 320 g/ha
Method in brief: as §2

chickweed [22] = assay: Test Example 5: herbicidal effect by foliage application, plastic box (Table 20, symbol P); assay type: in vivo, common chickweed (Stellaria media); details: foliage application, evaluated three weeks after application
Method in brief: as §1

blackgrass [23] = assay: Test Example 5: herbicidal effect by foliage application, plastic box (Table 20, symbol J); assay type: in vivo, blackgrass (Alopecurus myosuroides); details: foliage application, evaluated three weeks after application
Method in brief: as §1

Japanese bulrush = assay: Test Example 1: herbicidal activity, application before weed generation under submerged conditions (Table 16, symbol B); assay type: in vivo, Japanese bulrush (Schoenoplectus juncoides); details: 320 g/ha applied herbicide
Method in brief: as §4

wild oat [24] = assay: Test Example 5: herbicidal effect by foliage application, plastic box (Table 20, symbol I); assay type: in vivo, wild oat (Avena fatua); details: foliage application, evaluated three weeks after application
Method in brief: as §1

barnyard grass [25] = assay: Test Example 5: herbicidal effect by foliage application, plastic box (Table 20, symbol H); assay type: in vivo, barnyard grass (Echinochloa crus-galli); details: foliage application, evaluated three weeks after application
Method in brief: as §1

| Compound | herbicidal effect on K: Italian ryegrass (Italian ryegrass [2]) | herbicidal effect on G: green foxtail (green foxtail [3]) | herbicidal effect on H: barnyard grass (barnyard grass [5]) | herbicidal effect on L: windgrass (windgrass [7]) | herbicidal effect on R: persian speedwell (persian speedwell [8]) | Herbicidal effect on C: oval-leafed pondweed (grade 0-5) (oval-leafed pondweed) | herbicidal effect on F: southern crabgrass (southern crabgrass [10]) | herbicidal effect on D: Chinese sprangletop (Chinese sprangletop) | herbicidal effect on M: velvetleaf (velvetleaf [11]) | herbicidal effect on H: barnyard grass (barnyard grass [12]) | herbicidal effect on P: chickweed (chickweed [13]) | herbicidal effect on O: lambsquarters (lambsquarters [17]) | herbicidal effect on N: redroot pigweed (redroot pigweed [18]) | herbicidal effect on E: rice flat sedge (rice flat sedge) | Herbicidal effect on A: late watergrass (grade 0-5) (late watergrass) | herbicidal effect on I: wild oat (wild oat [19]) | herbicidal effect on J: blackgrass (blackgrass [21]) | Herbicidal effect on B: Japanese bulrush (grade 0-5) (Japanese bulrush) | other results |
| --- | --- | --- | --- | --- | --- | --- | --- | --- | --- | --- | --- | --- | --- | --- | --- | --- | --- | --- | --- |
| CCCSc1cccc(-c2sc3ccc(F)cc3c2-c2c(O)c(C)nn(C)c2=O)c1 [2-246] | 0 (Herbicidal rate of 5% or less (almost no effect)) | 0 (Herbicidal rate of 5% or less (almost no effect)) | 3 (Herbicidal rate of 40% or more and less than 70%) | 0 (Herbicidal rate of 5% or less (almost no effect)) | 5 (Herbicidal rate of 90% or more (almost completely withered)) | 0 (Herbicidal rate of 5% or less (almost no effect)) | 0 (Herbicidal rate of 5% or less (almost no effect)) | 0 (Herbicidal rate of 5% or less (almost no effect)) | 0 (Herbicidal rate of 5% or less (almost no effect)) | 0 (Herbicidal rate of 5% or less (almost no effect)) | 3 (Herbicidal rate of 40% or more and less than 70%) | 0 (Herbicidal rate of 5% or less (almost no effect)) | 0 (Herbicidal rate of 5% or less (almost no effect)) | 3 (Herbicidal rate of 40% or more and less than 70%) | 2 (Herbicidal rate of 20% or more and less than 40%) | 0 (Herbicidal rate of 5% or less (almost no effect)) | 0 (Herbicidal rate of 5% or less (almost no effect)) | 0 (Herbicidal rate of 5% or less (almost no effect)) | herbicidal effect on O: lambsquarters (criteria 0-5) (lambsquarters [1]; 320 g/ha): 0 (Herbicidal rate of 5% or less (almost no effect)); herbicidal effect on F: southern crabgrass (criteria 0-5) (southern crabgrass [4]; 320 g/ha): 0 (Herbicidal rate of 5% or less (almost no effect)); herbicidal effect on G: green foxtail (criteria 0-5) (green foxtail [6]; 320 g/ha): 0 (Herbicidal rate of 5% or less (almost no effect)); herbicidal effect on R: persian speedwell (criteria 0-5) (persian speedwell [9]; 320 g/ha): 5 (Herbicidal rate of 90% or more (almost completely withered)); herbicidal effect on L: windgrass (criteria 0-5) (windgrass [14]; 320 g/ha): 3 (Herbicidal rate of 40% or more and less than 70%); herbicidal effect on M: velvetleaf (criteria 0-5) (velvetleaf [15]; 320 g/ha): 3 (Herbicidal rate of 40% or more and less than 70%); herbicidal effect on N: redroot pigweed (criteria 0-5) (redroot pigweed [16]; 320 g/ha): 3 (Herbicidal rate of 40% or more and less than 70%); herbicidal effect on K: Italian ryegrass (criteria 0-5) (Italian ryegrass [20]; 320 g/ha): 2 (Herbicidal rate of 20% or more and less than 40%); herbicidal effect on P: chickweed (criteria 0-5) (chickweed [22]; 320 g/ha): 5 (Herbicidal rate of 90% or more (almost completely withered)); herbicidal effect on J: blackgrass (criteria 0-5) (blackgrass [23]; 320 g/ha): 1 (Herbicidal rate of 5% or more and less than 20%); herbicidal effect on I: wild oat (criteria 0-5) (wild oat [24]; 320 g/ha): 4 (Herbicidal rate of 70% or more and less than 90%); herbicidal effect on H: barnyard grass (criteria 0-5) (barnyard grass [25]; 320 g/ha): 0 (Herbicidal rate of 5% or less (almost no effect)) |
| CC(=O)COc1cccc(-c2sc3ccc(F)cc3c2-c2c(O)c(C)nn(C)c2=O)c1 [2-275] | 0 (Herbicidal rate of 5% or less (almost no effect)) | 4 (Herbicidal rate of 70% or more and less than 90%) | 3 (Herbicidal rate of 40% or more and less than 70%) | 0 (Herbicidal rate of 5% or less (almost no effect)) | 3 (Herbicidal rate of 40% or more and less than 70%) | 3 (Herbicidal rate of 40% or more and less than 70%) | 5 (Herbicidal rate of 90% or more (almost completely withered)) | 0 (Herbicidal rate of 5% or less (almost no effect)) | 1 (Herbicidal rate of 5% or more and less than 20%) | 3 (Herbicidal rate of 40% or more and less than 70%) | 0 (Herbicidal rate of 5% or less (almost no effect)) | 2 (Herbicidal rate of 20% or more and less than 40%) | 4 (Herbicidal rate of 70% or more and less than 90%) | 0 (Herbicidal rate of 5% or less (almost no effect)) | 3 (Herbicidal rate of 40% or more and less than 70%) | 0 (Herbicidal rate of 5% or less (almost no effect)) | 0 (Herbicidal rate of 5% or less (almost no effect)) | 3 (Herbicidal rate of 40% or more and less than 70%) | O: lambsquarters, herbicidal effect (criteria 0-5) (lambsquarters [1]; AAH 320 g/ha): 2 (Herbicidal rate of 20% or more and less than 40%); F: southern crabgrass, herbicidal effect (criteria 0-5) (southern crabgrass [4]; AAH 320 g/ha): 5 (Herbicidal rate of 90% or more (almost completely withered)); G: green foxtail, herbicidal effect (criteria 0-5) (green foxtail [6]; AAH 320 g/ha): 4 (Herbicidal rate of 70% or more and less than 90%); R: persian speedwell, herbicidal effect (criteria 0-5) (persian speedwell [9]; AAH 320 g/ha): 5 (Herbicidal rate of 90% or more (almost completely withered)); L: windgrass, herbicidal effect (criteria 0-5) (windgrass [14]; AAH 320 g/ha): 0 (Herbicidal rate of 5% or less (almost no effect)); M: velvetleaf, herbicidal effect (criteria 0-5) (velvetleaf [15]; AAH 320 g/ha): 3 (Herbicidal rate of 40% or more and less than 70%); N: redroot pigweed, herbicidal effect (criteria 0-5) (redroot pigweed [16]; AAH 320 g/ha): 4 (Herbicidal rate of 70% or more and less than 90%); K: Italian ryegrass, herbicidal effect (criteria 0-5) (Italian ryegrass [20]; AAH 320 g/ha): 0 (Herbicidal rate of 5% or less (almost no effect)); P: chickweed, herbicidal effect (criteria 0-5) (chickweed [22]; AAH 320 g/ha): 5 (Herbicidal rate of 90% or more (almost completely withered)); J: blackgrass, herbicidal effect (criteria 0-5) (blackgrass [23]; AAH 320 g/ha): 0 (Herbicidal rate of 5% or less (almost no effect)); I: wild oat, herbicidal effect (criteria 0-5) (wild oat [24]; AAH 320 g/ha): 0 (Herbicidal rate of 5% or less (almost no effect)); H: barnyard grass, herbicidal effect (criteria 0-5) (barnyard grass [25]; AAH 320 g/ha): 3 (Herbicidal rate of 40% or more and less than 70%) |
